# Source: ChEMBL document CHEMBL1629634, “Postantibiotic effect of tigecycline against 14 gram-positive organisms” (Antimicrob Agents Chemother, 2009)
# Tests used:
# Type in all cases: functional
# Haemophilus influenzae [1] = assay: Antibacterial activity against amoxicillin, clavulanate-resistant Haemophilus influenzae expressing beta-lactamase assessed as post antibiotic effect at 10 times MIC concentration incubated for 1 hr measured after 1:1000 dilution by viable plate count method
# Enterobacter cloacae [2] = assay: Antibacterial activity against Enterobacter cloacae assessed as post-antibiotic sub-MIC effect at 0.3 times MIC concentration pretreated with 10 times MIC concentration for 1 hr followed by 1:1000 dilution by viable plate count method
# Escherichia coli [3] = assay: Antibacterial activity against Escherichia coli assessed as sub-MIC effect at 0.4 times MIC concentration incubated for 1 hr by viable plate count method
# Haemophilus influenzae [4] = assay: Antibacterial activity against amoxicillin, clavulanate-resistant Haemophilus influenzae expressing beta-lactamase assessed as sub-MIC effect at 0.4 times MIC concentration incubated for 1 hr by viable plate count method
# Haemophilus influenzae [5] = assay: Antibacterial activity against amoxicillin, clavulanate-resistant Haemophilus influenzae expressing beta-lactamase assessed as post-antibiotic sub-MIC effect at 0.3 times MIC concentration pretreated with 6 times MIC concentration for 1 hr followed by 1:1000 dilution by viable plate count method
# Klebsiella pneumoniae [6] = assay: Antibacterial activity against Klebsiella pneumoniae assessed as post-antibiotic sub-MIC effect at 0.3 times MIC concentration pretreated with 2 times MIC concentration for 1 hr followed by 1:1000 dilution by viable plate count method
# Acinetobacter baumannii [7] = assay: Antibacterial activity against multidrug-resistant Acinetobacter baumannii producing OXA-24 and OXA-51 beta-lactamases assessed as post-antibiotic sub-MIC effect at 0.2 times MIC concentration pretreated with 2 times MIC concentration for 1 hr followed by 1:1000 dilution by viable plate count method
# Klebsiella pneumoniae [8] = assay: Antibacterial activity against Klebsiella pneumoniae assessed as sub-MIC effect at 0.3 times MIC concentration incubated for 1 hr by viable plate count method
# Enterococcus faecalis [9] = assay: Antibacterial activity against vancomycin-resistant Enterococcus faecalis assessed as sub-MIC effect at 0.4 times MIC concentration incubated for 1 hr by viable plate count method
# Enterococcus faecalis [10] = assay: Antibacterial activity against vancomycin-sensitive Enterococcus faecalis assessed as post-antibiotic sub-MIC effect at 0.2 times MIC concentration pretreated with 10 times MIC concentration for 1 hr followed by 1:1000 dilution by viable plate count method
# Acinetobacter baumannii [11] = assay: Antibacterial activity against Acinetobacter baumannii assessed as post-antibiotic sub-MIC effect at 0.3 times MIC concentration pretreated with 6 times MIC concentration for 1 hr followed by 1:1000 dilution by viable plate count method
# Haemophilus influenzae [12] = assay: Antibacterial activity against amoxicillin, clavulanate-resistant Haemophilus influenzae expressing beta-lactamase assessed as sub-MIC effect at 0.2 times MIC concentration incubated for 1 hr by viable plate count method
# Escherichia coli [13] = assay: Antibacterial activity against Escherichia coli assessed as sub-MIC effect at 0.3 times MIC concentration incubated for 1 hr by viable plate count method
# Haemophilus influenzae [14] = assay: Antibacterial activity against amoxicillin, clavulanate-resistant Haemophilus influenzae expressing beta-lactamase assessed as post-antibiotic sub-MIC effect at 0.4 times MIC concentration pretreated with 6 times MIC concentration for 1 hr followed by 1:1000 dilution by viable plate count method
# Staphylococcus aureus [15] = assay: Antibacterial activity against vancomycin-intermediate methicillin-resistant Staphylococcus aureus assessed as sub-MIC effect at 0.3 times MIC concentration incubated for 1 hr by viable plate count method
# Enterobacter cloacae [16] = assay: Antibacterial activity against Enterobacter cloacae assessed as post-antibiotic sub-MIC effect at 0.4 times MIC concentration pretreated with 10 times MIC concentration for 1 hr followed by 1:1000 dilution by viable plate count method
# Enterobacter cloacae [17] = assay: Antibacterial activity against Enterobacter cloacae assessed as post-antibiotic sub-MIC effect at 0.2 times MIC concentration pretreated with 10 times MIC concentration for 1 hr followed by 1:1000 dilution by viable plate count method
# Enterobacter cloacae [18] = assay: Antibacterial activity against Enterobacter cloacae assessed as post antibiotic effect
# Escherichia coli [19] = assay: Antibacterial activity against Escherichia coli by macrodilution method
# Staphylococcus aureus [20] = assay: Antibacterial activity against vancomycin-intermediate methicillin-resistant Staphylococcus aureus assessed as post-antibiotic sub-MIC effect at 0.4 times MIC concentration pretreated with 10 times MIC concentration for 1 hr followed by 1:1000 dilution by viable plate count method
# Acinetobacter baumannii [21] = assay: Antibacterial activity against Acinetobacter baumannii assessed as post-antibiotic sub-MIC effect at 0.2 times MIC concentration pretreated with 10 times MIC concentration for 1 hr followed by 1:1000 dilution by viable plate count method
# Streptococcus pneumoniae = assay: Antibacterial activity against penicillin-resistant Streptococcus pneumoniae assessed as sub-MIC effect at 0.3 times MIC concentration incubated for 1 hr by viable plate count method
# Escherichia coli [22] = assay: Antibacterial activity against Escherichia coli assessed as post antibiotic effect
# Haemophilus influenzae [23] = assay: Antibacterial activity against amoxicillin, clavulanate-resistant Haemophilus influenzae expressing beta-lactamase assessed as post antibiotic effect at 6 times MIC concentration incubated for 1 hr measured after 1:1000 dilution by viable plate count method
# Enterobacter cloacae [24] = assay: Antibacterial activity against Enterobacter cloacae by macrodilution method
# Klebsiella pneumoniae [25] = assay: Antibacterial activity against Klebsiella pneumoniae assessed as sub-MIC effect at 0.4 times MIC concentration incubated for 1 hr by viable plate count method
# Haemophilus influenzae [26] = assay: Antibacterial activity against amoxicillin, clavulanate-resistant Haemophilus influenzae expressing beta-lactamase assessed as sub-MIC effect at 0.3 times MIC concentration incubated for 1 hr by viable plate count method
# Staphylococcus aureus [27] = assay: Antibacterial activity against vancomycin-intermediate methicillin-resistant Staphylococcus aureus assessed as post antibiotic effect at 10 times MIC concentration incubated for 1 hr measured after 1:1000 dilution by viable plate count method
# Staphylococcus aureus [28] = assay: Antibacterial activity against vancomycin-sensitive methicillin-resistant Staphylococcus aureus assessed as sub-MIC effect at 0.2 times MIC concentration incubated for 1 hr by viable plate count method
# Staphylococcus aureus [29] = assay: Antibacterial activity against vancomycin-sensitive methicillin-resistant Staphylococcus aureus by macrodilution method
# Haemophilus influenzae [30] = assay: Antibacterial activity against amoxicillin, clavulanate-resistant Haemophilus influenzae expressing beta-lactamase assessed as post-antibiotic sub-MIC effect at 0.4 times MIC concentration pretreated with 10 times MIC concentration for 1 hr followed by 1:1000 dilution by viable plate count method
# Enterococcus faecalis [31] = assay: Antibacterial activity against Enterococcus faecalis assessed as post antibiotic effect
# Haemophilus influenzae [32] = assay: Antibacterial activity against beta-lactamase deficient and ampicillin-resistant Haemophilus influenzae assessed as post antibiotic effect at 10 times MIC concentration incubated for 1 hr measured after 1:1000 dilution by viable plate count method
# Haemophilus influenzae [33] = assay: Antibacterial activity against beta-lactamase deficient and ampicillin-resistant Haemophilus influenzae assessed as sub-MIC effect at 0.3 times MIC concentration incubated for 1 hr by viable plate count method
# Acinetobacter baumannii [34] = assay: Antibacterial activity against multidrug-resistant Acinetobacter baumannii producing OXA-24 and OXA-51 beta-lactamases assessed as sub-MIC effect at 0.3 times MIC concentration incubated for 1 hr by viable plate count method
# Acinetobacter baumannii [35] = assay: Antibacterial activity against Acinetobacter baumannii assessed as post-antibiotic sub-MIC effect at 0.4 times MIC concentration pretreated with 6 times MIC concentration for 1 hr followed by 1:1000 dilution by viable plate count method
smiles,measurement,setting,value
CN(C)c1cc(NC(=O)CNC(C)(C)C)c(O)c2c1C[C@H]1C[C@H]3[C@H](N(C)C)C(O)=C(C(N)=O)C(=O)[C@@]3(O)C(O)=C1C2=O [TIGECYCLINE],PAE,Haemophilus influenzae [1],3.7 h
same,PAE,Enterobacter cloacae [2],5 h
same,PAE,Escherichia coli [3],0.1 h
same,PAE,Haemophilus influenzae [4],1.9 h
same,PAE,Haemophilus influenzae [5],4.7 h
same,PAE,Klebsiella pneumoniae [6],2 h
same,PAE,Acinetobacter baumannii [7],1.2 h
same,PAE,Klebsiella pneumoniae [8],0.4 h
same,PAE,Enterococcus faecalis [9],0.4 h
same,PAE,Enterococcus faecalis [10],5.3 h
same,PAE,Acinetobacter baumannii [11],10.7 h
same,PAE,Haemophilus influenzae [12],0 h
same,PAE,Escherichia coli [13],0 h
same,PAE,Haemophilus influenzae [14],7.7 h
same,PAE,Staphylococcus aureus [15],2.9 h
same,PAE,Enterobacter cloacae [16],7.2 h
same,PAE,Enterobacter cloacae [17],3.6 h
same,PAE,Enterobacter cloacae [18],2 h
same,MIC,Escherichia coli [19],0.12 µg/mL
same,PAE,Staphylococcus aureus [20],10 h
same,PAE,Acinetobacter baumannii [21],6.7 h
same,PAE,Streptococcus pneumoniae,0.5 h
same,PAE,Escherichia coli [22],2 h
same,PAE,Haemophilus influenzae [23],3.9 h
same,MIC,Enterobacter cloacae [24],0.5 µg/mL
same,PAE,Klebsiella pneumoniae [25],0.7 h
same,PAE,Haemophilus influenzae [26],0.8 h
same,PAE,Staphylococcus aureus [27],4 h
same,PAE,Staphylococcus aureus [28],0.2 h
same,MIC,Staphylococcus aureus [29],0.12 µg/mL
same,PAE,Haemophilus influenzae [30],7.9 h
same,PAE,Enterococcus faecalis [31],1 h
same,PAE,Haemophilus influenzae [32],1.1 h
same,PAE,Haemophilus influenzae [33],0.8 h
same,PAE,Acinetobacter baumannii [34],0.7 h
same,PAE,Acinetobacter baumannii [35],> 11.2 h
